Here are results for six molecules from US5264429A, “2-spirocyclopropyl cephalosporin sulfone derivatives” (SynPhar Laboratories, Inc., priority 1991, dated 1993).

One experiment concerns the target T1, cathepsin D (Bos taurus, UniProt P80209).
T1 construct: from tissue; host or cells: bovine spleen
In words: Inhibition of cathepsin D (CTD). In kind it is biochemical, bovine. The method, then: Except for Cathepsin D, the enzyme activities were determined by monitoring the increase in absorbance at 410 nm caused by the hydrolysis of chromogenic substrates. The activity of Cathepsin D was determined by monitoring the absorbance of 5% trichloroacetic acid-soluble material at 280 nm. Inhibition of enzymes by the compounds described were determined after a 10 minute preincubation with enzymes in reaction mixtures minus substrate. Reactions were initiated by the addition of substrates. […] Cathepsin D was used at the concentration that produced approximately 0.15 O.D. increase per 20 min at 280 nm under the standard conditions. All other proteases were assayed at the concentrations that produced approximately 0.1 O.D. change per minute at 410 nm under the standard conditions.

The next experiment deals with T2, thrombin (Homo sapiens, UniProt P00734).
T2 construct: from tissue; host or cells: human plasma
As to the kind of experiment: Inhibition of thrombin (THR). In kind it is biochemical. The following applies: pH 8.6, 10 minute preincubation, 22° C. The protocol: (§1) HLE, CTG, PPE and CTD were tested at 30° C. and the others were
(§2) TRY, trypsin; THR, thrombin; PTH, plasmin; CTC, cathepsin C; ATM,
Enzyme: Purified thrombin from human plasma
Substrate: Tosyl-glycyl-L-prolyl-L-arginine-p-NA acetate
Reaction mixture: 50 mM Tricine-NaOH buffer (pH 8.6), 500 mM NaCl, 0.1% Polyethyleneglycol 8000, 10% DMSO, 0.5 mM Substrate.
(§3) Except for Cathepsin D, the enzyme activities were determined by monitoring the increase in absorbance at 410 nm caused by the hydrolysis of chromogenic substrates. The activity of Cathepsin D was determined by monitoring the absorbance of 5% trichloroacetic acid-soluble material at 280 nm.
(§4) Inhibition of enzymes by the compounds described were determined after a 10 minute preincubation with enzymes in reaction mixtures minus substrate. Reactions were initiated by the addition of substrates. The concentration used for assays were porcine pancreatic elastase at 240 nM and human Cathepsin G at 50 nM. Cathepsin D was used at the concentration that produced approximately 0.15 O.D. increase per 20 min at 280 nm under the standard conditions. All other proteases were assayed at the concentrations that produced approximately 0.1 O.D. change per minute at 410 nm under the standard conditions.

The target in a further experiment is T3, cathepsin G (Homo sapiens, UniProt P08311).
T3 construct: from tissue; host or cells: human white blood cells
T3 sequence (P08311 21-244 limits assumed): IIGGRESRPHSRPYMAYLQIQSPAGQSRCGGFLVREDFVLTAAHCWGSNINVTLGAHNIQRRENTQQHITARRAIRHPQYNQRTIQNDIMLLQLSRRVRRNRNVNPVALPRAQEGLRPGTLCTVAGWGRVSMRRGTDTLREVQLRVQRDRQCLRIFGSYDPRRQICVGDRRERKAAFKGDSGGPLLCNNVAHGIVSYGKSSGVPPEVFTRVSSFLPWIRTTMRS
As to the kind of experiment: Inhibition of cathepsin G (CTG). The class given is biochemical. To be noted: cathepsin G 50 nM, pH 7.5, 10 minute preincubation, 30° C.; read-out: IC50 CTG (converted).

The next experiment addresses T4, aminopeptidase M (Sus scrofa, UniProt P15145).
T4 construct: from tissue; host or cells: porcine kidney
T4 sequence (P15145 1-963): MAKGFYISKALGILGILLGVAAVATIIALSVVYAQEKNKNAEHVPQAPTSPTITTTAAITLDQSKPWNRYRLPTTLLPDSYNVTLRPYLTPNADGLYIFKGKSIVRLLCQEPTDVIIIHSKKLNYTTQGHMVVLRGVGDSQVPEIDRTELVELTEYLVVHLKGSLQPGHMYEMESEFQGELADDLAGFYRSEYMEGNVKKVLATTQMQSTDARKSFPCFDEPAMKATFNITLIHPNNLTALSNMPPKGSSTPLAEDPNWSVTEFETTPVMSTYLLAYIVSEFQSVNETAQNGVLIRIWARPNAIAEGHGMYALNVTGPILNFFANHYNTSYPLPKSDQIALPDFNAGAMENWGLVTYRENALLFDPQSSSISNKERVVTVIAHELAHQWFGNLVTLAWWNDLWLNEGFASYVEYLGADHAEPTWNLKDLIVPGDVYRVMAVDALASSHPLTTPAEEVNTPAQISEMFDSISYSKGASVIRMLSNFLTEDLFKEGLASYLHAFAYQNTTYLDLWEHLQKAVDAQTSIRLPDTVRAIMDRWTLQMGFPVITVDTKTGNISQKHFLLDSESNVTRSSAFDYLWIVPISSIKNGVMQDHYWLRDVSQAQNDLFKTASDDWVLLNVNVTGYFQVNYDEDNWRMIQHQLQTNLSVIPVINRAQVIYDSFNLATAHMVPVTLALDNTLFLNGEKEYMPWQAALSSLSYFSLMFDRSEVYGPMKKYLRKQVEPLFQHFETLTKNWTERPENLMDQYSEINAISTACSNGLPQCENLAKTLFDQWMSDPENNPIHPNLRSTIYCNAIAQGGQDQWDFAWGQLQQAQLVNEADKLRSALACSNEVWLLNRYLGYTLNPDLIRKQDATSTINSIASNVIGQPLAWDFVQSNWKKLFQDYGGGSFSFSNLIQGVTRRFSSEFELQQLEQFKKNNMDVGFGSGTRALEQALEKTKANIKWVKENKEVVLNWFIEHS
As to the kind of experiment: Inhibition of aminopeptidase M (ATM). The class given is biochemical, porcine. The following applies: aminopeptidase M, pH 7.5, 10 minute preincubation, 22° C.; read-out: IC50 ATM. The protocol: as §1, §2
aminopeptidase M; CTG, cathespin G; CTD, cathespin D; PPE, porcine
Enzyme: Purified aminopeptidase M from porcine kidney
Reaction Mixture: 50 mM Tricine buffer (pH 7.5), 500 mM NaCl, 10% DMSO, 2.0 mM Substrate.
as §3, §4

In another experiment the target is T5, plasmin (Homo sapiens, UniProt P00747).
T5 construct: from tissue; host or cells: human plasma
As to the kind of experiment: Inhibition of plasmin (PTH). The class given is biochemical. To be noted: pH 8.9, 10 minute preincubation, 22° C. The method, then: as §1, §2
Enzyme: Purified plasmin from human plasma Substrate: Tosyl-glyclyl-L-prolyl-L-lysine-pNA acetate
Reaction mixture: 50 mM Tris-HCl buffer (pH 8.9), 500 mM NaCl, 5% DMSO, 0.5 mM Substrate.
as §3, §4

The next experiment concerns the target T6, trypsin (Bos taurus, UniProt P00760).
T6 construct: from tissue; host or cells: bovine pancreas
T6 sequence (P00760 24-246): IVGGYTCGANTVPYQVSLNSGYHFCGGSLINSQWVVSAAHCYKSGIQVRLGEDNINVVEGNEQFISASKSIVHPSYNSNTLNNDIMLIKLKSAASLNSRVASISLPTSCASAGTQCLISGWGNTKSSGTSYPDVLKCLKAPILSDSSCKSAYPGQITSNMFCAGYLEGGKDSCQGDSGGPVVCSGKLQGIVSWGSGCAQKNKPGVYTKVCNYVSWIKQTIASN
In words: Inhibition of trypsin (TRY). The class given is biochemical, bovine. To be noted: trypsin, pH 8.8, 10 minute preincubation, 22° C.; read-out: IC50 TRY (converted).

A further experiment has as its target T7, cathepsin C (Bos taurus, UniProt Q3ZCJ8).
T7 construct: from tissue; host or cells: bovine spleen
As to the kind of experiment: Inhibition of cathepsin C (CTC). The class given is biochemical, bovine. The following applies: cathepsin C, pH 5.4, 10 minute preincubation, 22° C.; read-out: IC50 CTC. The protocol:
as §1, §2
Enzyme: Purified cathepsin C from bovine spleen
Substrate: Glycyl-L-phenylalanine-pNA
Reaction mixture: 50 mM Citrate buffer (pH 5.4), 5 mM B-Mercaptoethanol, 150 mM NaCl, 10% DMSO, 20 mM Substrate.
as §3, §4

In experiment [1] the target is T8, human leukocyte elastase (HLE) (Homo sapiens, UniProt P08246).
T8 construct: from tissue; host or cells: human white blood cells
T8 sequence (P08246 30-247 limits assumed): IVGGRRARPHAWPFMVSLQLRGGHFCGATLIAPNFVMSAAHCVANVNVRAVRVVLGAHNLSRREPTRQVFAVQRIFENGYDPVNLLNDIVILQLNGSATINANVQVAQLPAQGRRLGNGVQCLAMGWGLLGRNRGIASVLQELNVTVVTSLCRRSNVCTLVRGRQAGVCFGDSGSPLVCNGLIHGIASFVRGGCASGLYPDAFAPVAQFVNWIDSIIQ
As to the kind of experiment: Enzyme Assay for Inhibition of HLE. In kind it is biochemical. To be noted: HLE 10 nM, pH 7.6, 10 minute preincubation, 30° C. The protocol: Enzyme Assay for Inhibition of HLE:
Enzyme: Purified elastase from human white blood cells.
Substrate: MeO-succinyl-L-alanyl-L-alanyl-L-prolyl-L-valine-p-nitro-anilide(NA).
Reaction Mixture: 10 mM phosphate buffer (pH 7.6), 500 mM NaCl, 10% dimethylsulfoxide (DMSO), 0.35 mM substrate.
The enzyme activity was determined by monitoring the increase in absorbance at 410 nm caused by the hydrolysis of chromogenic substrates. Inhibition of enzyme by the compounds described were determined after a 10 minute preincubation with the enzyme in reaction mixture minus substrate. Reaction was initiated by the addition of substrate. The concentration of human leukocyte elastase used for assay was at 10 nM.
HLE, CTG, PPE and CTD were tested at 30° C. and the others were […]

Molecules are shown by their SMILES. pIC50: −log10 of the molar value.

T5 sequence (P00747 581-810 limits assumed): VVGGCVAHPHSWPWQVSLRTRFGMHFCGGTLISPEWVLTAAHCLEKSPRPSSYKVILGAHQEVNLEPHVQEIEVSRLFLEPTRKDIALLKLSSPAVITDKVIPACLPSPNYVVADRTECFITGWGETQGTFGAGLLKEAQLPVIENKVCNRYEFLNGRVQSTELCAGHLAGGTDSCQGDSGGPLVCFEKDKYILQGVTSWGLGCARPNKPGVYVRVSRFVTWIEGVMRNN
T5 sequence (P00747 97-580 partner limits assumed): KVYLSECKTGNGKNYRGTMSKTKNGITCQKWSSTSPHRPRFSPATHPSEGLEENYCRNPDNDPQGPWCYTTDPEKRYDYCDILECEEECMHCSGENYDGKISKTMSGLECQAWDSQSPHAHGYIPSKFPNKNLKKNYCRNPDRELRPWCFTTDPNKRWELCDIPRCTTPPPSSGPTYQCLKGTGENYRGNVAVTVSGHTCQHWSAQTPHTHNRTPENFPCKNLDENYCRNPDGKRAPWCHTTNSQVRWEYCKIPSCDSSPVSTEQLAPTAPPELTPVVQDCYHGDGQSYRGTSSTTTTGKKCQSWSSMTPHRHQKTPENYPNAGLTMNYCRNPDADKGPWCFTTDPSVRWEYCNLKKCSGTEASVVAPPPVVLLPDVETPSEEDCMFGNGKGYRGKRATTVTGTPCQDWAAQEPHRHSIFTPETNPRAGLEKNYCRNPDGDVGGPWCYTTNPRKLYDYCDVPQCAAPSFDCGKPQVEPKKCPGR
T1 sequence (P80209 45-390): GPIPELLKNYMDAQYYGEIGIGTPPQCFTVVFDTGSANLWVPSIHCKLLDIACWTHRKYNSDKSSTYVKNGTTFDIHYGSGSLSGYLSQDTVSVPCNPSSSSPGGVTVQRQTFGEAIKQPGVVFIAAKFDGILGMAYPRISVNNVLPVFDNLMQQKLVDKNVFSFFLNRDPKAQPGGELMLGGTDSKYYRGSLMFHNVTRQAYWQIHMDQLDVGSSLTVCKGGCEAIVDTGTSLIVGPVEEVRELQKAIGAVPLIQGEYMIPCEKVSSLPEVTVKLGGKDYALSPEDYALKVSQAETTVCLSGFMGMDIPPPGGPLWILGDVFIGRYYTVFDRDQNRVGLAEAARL
T7 sequence (Q3ZCJ8 231-394 limits assumed): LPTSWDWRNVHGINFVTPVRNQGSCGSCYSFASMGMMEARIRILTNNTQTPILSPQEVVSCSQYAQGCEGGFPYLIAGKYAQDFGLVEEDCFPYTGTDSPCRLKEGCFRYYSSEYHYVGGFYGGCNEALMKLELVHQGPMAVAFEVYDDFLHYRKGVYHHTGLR
T7 sequence (Q3ZCJ8 395-463 limits assumed): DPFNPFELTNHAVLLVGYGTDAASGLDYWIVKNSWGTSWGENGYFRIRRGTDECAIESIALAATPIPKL
T7 sequence (Q3ZCJ8 25-134 limits assumed): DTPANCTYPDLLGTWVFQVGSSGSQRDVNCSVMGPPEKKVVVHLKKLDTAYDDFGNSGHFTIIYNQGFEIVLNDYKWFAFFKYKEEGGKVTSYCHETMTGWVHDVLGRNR
Description for cathepsin G: Enzyme: Purified Cathepsin G from human white blood cells
Substrate: N-succinyl-L-alanyl-L-alanyl-L-phenylalanyl-L-phenylalanine -p-NA.
Reaction mixture: 10 mM Phosphate buffer (pH 7.5), 500 mM NaCl, 10% DMSO, 2.0 mM Substrate.
Description for trypsin: Enzyme: Purified trypsin from bovine pancreas
Substrate: Bz-L-arginine-p-NA
Reaction mixture: 50 mM Tricine[N-Tris(hydroxymethyl)methylglycine]-NaOH buffer (pH 8.8) 150 mM NaCl, 10% DMSO 1.0 mM Substrate.
Inhibition of enzymes by the compounds described were determined after a 10 minute preincubation with enzymes in reaction mixtures minus substrate. Reactions were initiated by the addition of substrates. […] All other proteases were assayed at the concentrations that produced approximately 0.1 O.D. change per minute at 410 nm under the standard conditions.

Consider `CO[C@H]1C(=O)N2C(C(=O)N3CCCCC3)=C(C)C3(CC3(c3ccccc3)c3ccccc3)S(=O)(=O)[C@H]12` (stereo partly drawn) [Example 11, 7α-Methoxy-2-spiro (2',2'-diphenyl)cyclopropyl-3-methyl-3-cephem-4-piperidine carboxamide-1,1-dioxide], for which the pIC50 on cathepsin D was 7.50; on thrombin it was less than 4.40; on aminopeptidase M, less than 5.00; against plasmin, less than 5.00; at cathepsin C it was less than 5.00; in experiment [1], 7.97. Moreover, the IC50 at cathepsin G and on trypsin was greater than 10000 nM in each case.

As for `CC1=C(C(=O)OC(c2ccccc2)c2ccccc2)N2C(=O)CC2S(=O)(=O)C12CC2(c1ccccc1)c1ccccc1` (stereo not shown) [Example 5, Benzhydryl 7,7-dihydro-2-spiro(2',2'-diphenyl)cyclopropyl-3-methyl-3-cephem-4-carboxylate-1,1-dioxide], the pIC50 in experiment [1] was 6.83.

For the molecule `CC1=C(C(=O)OC(c2ccccc2)c2ccccc2)N2C(=O)[C@H](Br)[C@H]2S(=O)(=O)C12CC2c1ccccc1` (stereo partly drawn) [Example 13 (3), Benzhydryl 7α-bromo-2-spiro(2'-phenyl)cyclopropyl-3-methyl-3-cephem-4-carboxylate-1,1-dioxide], the pIC50 in experiment [1] was 8.18.

Regarding `CC(=O)OCC1=C(C(=O)OC(C)(C)C)N2C(=O)[C@H](Cl)[C@H]2S(=O)(=O)C12CC2(c1ccccc1)c1ccccc1` (stereo partly drawn) [Example 4, t-Butyl 7α-chloro-2-spiro(2',2'-diphenyl)cyclopropyl-3-acetoxymethyl-3-cephem-4-carboxylate-1,1-dioxide], in experiment [1], the negative-log IC50 (pIC50) was 7.04.

Regarding `Cc1nnc(SCC2=C(C(=O)OC(c3ccccc3)c3ccccc3)N3C(=O)[C@H](Br)[C@H]3[S+]([O-])C23CC3(c2ccc(Cl)cc2)c2ccc(Cl)cc2)s1` (stereo partly drawn) [Benzhydryl-7α-bromo-2-spiro[2',2'-(4',4'-dichloro)diphenyl]-cyclopropyl-3-[(5-methyl-1,3,4-thiadiazol-2-yl)thiomethyl]-3-cephem-4-carboxylate-1-oxide], the pIC50 in experiment [1] was 7.31.

In experiment [1], `COc1ccc(COC(=O)C2=C(CCl)C3(CC3(c3ccccc3)c3ccccc3)S(=O)(=O)[C@@H]3[C@@H](Br)C(=O)N23)cc1` (stereo partly drawn) [p-Methoxybenzyl 7α-bromo-2-spiro(2',2'-diphenyl) cyclopropyl-3-chloromethyl-3-cephem-4-carboxylate-1,1-dioxide] showed a pIC50 of 8.39.
